According to US12037333B2, “Pyridopyrazine and pyridotriazine inhibitors of influenza virus replication” (priority 2018, dated 2024):

System: Influenza type A (strain A/PR/8/34, ATCC VR-95)
Assay: Influenza antiviral assay: inhibition of virus-induced cytopathic effects (CPE) in MDCK cells, XTT dye reduction
Type: cell-based
Conditions: strain A/PR/8/34, MDCK cells, CPE inhibition at 4 days
[1] = Influenza A virus, H1N1 / PR/8, MDCK, 96 h

SMILES	EC50 [1] [nM]	EC50 (Influenza A (H1N1)) [nM]
CC1N(C)C(=O)c2c(O)c(=O)ccn2N1C12c3ccccc3CC1Cc1c(Cl)cccc12 (centres unmarked) [Compound A94]	250 to 375	
CCOC12Cc3ccccc3C1(N1CN(CC)C(=O)c3c(O)c(=O)ccn31)c1ccccc1C2 (centres unmarked) [Compound A48, 1-(9a-Ethoxy-9a,10-dihydroindeno[1,2-a]inden-4b(9H)-yl)-3-ethyl-5-hydroxy-2,3-dihydro-1H-pyrido[2,1-f][1,2,4]triazine-4,6-dione]	< 125	
CN1CN(C23c4cc(F)ccc4CC2Cc2c(Cl)cccc23)n2ccc(=O)c(O)c2C1=O (centres unmarked) [Compound A96]	< 125	
COCCN1C(=O)c2c(O)c(=O)ccn2N(C23c4ccccc4CC2Cc2c(Cl)cccc23)C1C (centres unmarked) [Compound A125]	250 to 375	
CC1N(C)C(=O)c2c(O)c(=O)ccn2N1C12c3ccccc3CC1Cc1c2ccc(F)c1F (centres unmarked) [Compound A64]	< 125	
CC(C)CN1CN(C23c4cccc(F)c4CC2Cc2c(F)cccc23)n2ccc(=O)c(O)c2C1=O (centres unmarked) [Compound A156]	250 to 375	
O=C1c2c(O)c(=O)ccn2N(C23c4ccccc4CC2Cc2c3ccc(F)c2F)CN1CCCF (centres unmarked) [Compound A80]	< 125	
CC(C)CN1CN(C23c4ccccc4CC2Cc2c3ccc(F)c2F)n2ccc(=O)c(O)c2C1=O (centres unmarked) [Compound A149]	< 125	
Cc1ccc2c(c1F)CC1Cc3ccccc3C21N1CN(C)C(=O)c2c(O)c(=O)ccn21 (centres unmarked) [Compound A85]	125 to 250	
O=C1c2c(O)c(=O)ccn2N(C23c4ccccc4CC2Cc2c(F)cccc23)CN1CCc1ccccc1 (centres unmarked) [Compound A87]	125 to 250	
CC1N(CCF)C(=O)c2c(O)c(=O)ccn2N1C12c3ccccc3CC1Cc1c(Cl)cccc12 (centres unmarked) [Compound A115]	375 to 500	
O=C1c2c(O)c(=O)ccn2N(C23c4ccccc4CC2Cc2c3ccc(F)c2F)CN1CC1CCCCO1 (centres unmarked) [Compound A131]	375 to 500	
CC1N(C2CCC2)C(=O)c2c(O)c(=O)ccn2N1C12c3ccccc3CC1Cc1c(F)cccc12 (centres unmarked) [Compound A141]	375 to 500	
CN1CN(C23c4cc(F)ccc4CC2Cc2ccc(F)cc23)n2ccc(=O)c(O)c2C1=O (centres unmarked) [Compound A20, 1-(3,6-difluoro-9a,10-dihydroindeno[1,2-a]inden-4b(9H)-yl)-5-hydroxy-3-methyl-2,3-dihydro-1H-pyrido[2,1-f][1,2,4]triazine-4,6-dione]	< 125	
CC(C)N1CN(C23c4ccccc4CC2(C)Cc2ccccc23)n2ccc(=O)c(O)c2C1=O (centres unmarked) [Compound A50, 5-hydroxy-3-isopropyl-1-(9a-methyl-9a,10-dihydroindeno[1,2-a]inden-4b(9H)-yl)-2,3-dihydro-1H-pyrido[2,1-f] [1,2,4] triazine-4,6-dione]	< 125	
CN1CN(C23c4ccccc4CC2Cc2ccc(F)cc23)n2ccc(=O)c(O)c2C1=O (centres unmarked) [Compound A53]	< 125	
CN1CN(C23c4ccccc4CC2Cc2c3ccc(F)c2Cl)n2ccc(=O)c(O)c2C1=O (centres unmarked) [Compound A46, 1-(1-Chloro-2-fluoro-9a,10-dihydroindeno[1,2-a]inden-4b(9H)-yl)-5-hydroxy-3-methyl-2,3-dihydro-1H-pyrido[2,1-f][1,2,4]triazine-4,6-dione]	< 125	
CCCN1CN(C23c4cccc(F)c4CC2Cc2c(F)cccc23)n2ccc(=O)c(O)c2C1=O (centres unmarked) [Compound A153]	< 125	
CCN1CN(C23c4ccccc4CC2(CC)Cc2c3ccc(F)c2F)n2ccc(=O)c(O)c2C1=O (centres unmarked) [Compound A56]	< 125	
O=C1c2c(O)c(=O)ccn2N(C23c4cccc(F)c4CC2Cc2c(F)cccc23)CN1CCF (centres unmarked) [Compound A58]	< 125	
O=C1c2c(O)c(=O)ccn2N(C23c4ccccc4CC2Cc2c3ccc(F)c2F)CN1CC1CCCC1 (centres unmarked) [Compound A100]	> 500	
O=C1c2c(O)c(=O)ccn2N(C23c4ccccc4CC2Cc2c3ccc(F)c2F)CN1CC1CCCCC1 (centres unmarked) [Compound A99]	> 500	
O=C1c2c(O)c(=O)ccn2N(C23c4ccccc4CC2Cc2cc(F)c(F)cc23)CN1CC1CC1 (centres unmarked) [Compound A13, 3-Cyclopropylmethyl-1-(2,3-difluoro-9a,10-dihydro-9H-indeno[1,2-a]inden-4b-yl)-5-hydroxy-2,3-dihydro-1H-pyrido[2,1-f][1,2,4]triazine-4,6-dione]	< 125	
O=C1c2c(O)c(=O)ccn2N(C23c4ccccc4CC2Cc2c(F)cccc23)CN1CCCF (centres unmarked) [Compound A79]	< 125	
O=C1c2c(O)c(=O)ccn2N(C23c4ccccc4CC2Cc2c3ccc(F)c2F)CN1C1CC1 (centres unmarked) [Compound A61]	< 125	
O=C1c2c(O)c(=O)ccn2N(C23c4ccccc4CC2Cc2c(F)cccc23)CN1C1CC1 (centres unmarked) [Compound A65]	125 to 250	
CCCN1C(=O)c2c(O)c(=O)ccn2N(C23c4ccccc4CC2Cc2c(Cl)cccc23)C1C (centres unmarked) [Compound A132]	250 to 375	

SMILES	EC50 [1] [nM]	EC50 (Influenza A (H1N1)) [nM]
O=C1c2c(O)c(=O)ccn2N(C23c4ccccc4CC2Cc2cc(F)c(F)cc23)CN1CCc1ccc(F)cc1 (centres unmarked) [Compound A29, 1-(2,3-difluoro-9a,10-dihydroindeno[1,2-a]inden-4b(9H)-yl)-3-(4-fluorophenethyl)-5-hydroxy-2,3-dihydro-1H-pyrido[2,1-f][1,2,4]triazine-4,6-dione]	125 to 250	
O=C1c2c(O)c(=O)ccn2N(C23c4cccc(F)c4CC2Cc2c(F)cccc23)CN1CCc1ccccc1 (centres unmarked) [Compound A86]	125 to 250	
O=C1c2c(O)c(=O)ccn2N(C23c4ccccc4CC2Cc2c(F)cccc23)CN1CCF (centres unmarked) [Compound A68]	< 125	
CCN1CN(C23c4cccc(F)c4CC2Cc2c(F)cccc23)n2ccc(=O)c(O)c2C1=O (centres unmarked) [Compound A34]	< 125	
O=C1c2c(O)c(=O)ccn2N(C23c4ccccc4CC2Cc2c3ccc(F)c2F)CN1Cc1ccc(F)cc1 (centres unmarked) [Compound A17, 1-(1,2-Difluoro-9a,10-dihydro-9H-indeno[1,2-a]inden-4b-yl)-3-(4-fluoro-benzyl)-5-hydroxy-2,3-dihydro-1H-pyrido[2,1-f][1,2,4]triazine-4,6-dione]	125 to 250	
CC(C)CN1C(=O)c2c(O)c(=O)ccn2N(C23c4ccccc4CC2Cc2c3ccc(F)c2F)C1C (centres unmarked) [Compound A127]	> 500	
O=C1c2c(O)c(=O)ccn2N(C23c4cccc(F)c4CC2Cc2c(F)cccc23)CN1CC1CCOCC1 (centres unmarked) [Compound A81]	125 to 250	
O=C1c2c(O)c(=O)ccn2N(C23c4ccccc4CC2Cc2ccccc23)CN1CC1CC1 (centres unmarked) [Compound A2, 3-Cyclopropylmethyl-1-(9a,10-dihydro-9H-indeno[1,2-a]inden-4b-yl)-5-hydroxy-2,3-dihydro-1H-pyrido[2,1-f][1,2,4]triazine-4,6-dione]	125 to 250	
CC(C)CN1C(=O)c2c(O)c(=O)ccn2N(C23c4ccccc4CC2Cc2c(Cl)cccc23)C1C (centres unmarked) [Compound A118]	> 500	
CCN1CN(C23c4ccccc4CC2(CC)Cc2ccccc23)n2ccc(=O)c(O)c2C1=O (centres unmarked) [Compound A157]	125 to 250	
O=C1c2c(O)c(=O)ccn2N(C23c4ccccc4CC2Cc2c(Cl)cccc23)CN1CC1CC1 (centres unmarked) [Compound A108]	250 to 375	
CC1N(CCF)C(=O)c2c(O)c(=O)ccn2N1C12c3ccccc3CC1Cc1c(F)cccc12 (centres unmarked) [Compound A121]	125 to 250	
O=C1c2c(O)c(=O)ccn2N(C23c4ccccc4CC2Cc2c3ccc(F)c2F)CN1CCc1ccccc1 (centres unmarked) [Compound A25, 1-(1,2-difluoro-9a,10-dihydroindeno[1,2-a]inden-4b(9H)-yl)-5-hydroxy-3-phenethyl-2,3-dihydro-1H-pyrido[2,1-f][1,2,4]triazine-4,6-dione]	< 125	
O=C1c2c(O)c(=O)ccn2N(C23c4ccccc4CC2Cc2c(Cl)cccc23)CN1C1CCC1 (centres unmarked) [Compound A103]	250 to 375	
O=C1c2c(O)c(=O)ccn2N(C23c4ccccc4CC2Cc2c3ccc(F)c2F)CN1CC1CCOCC1 (centres unmarked) [Compound A15, 1-(1,2-Difluoro-9a,10-dihydro-9H-indeno[1,2-a]inden-4b-yl)-5-hydroxy-3-(tetrahydro-pyran-4-ylmethyl)-2,3-dihydro-1H-pyrido[2,1-f][1,2,4]triazine-4,6-dione]	< 125	
CN1CN(C23c4ccccc4CC2Cc2ccccc23)n2ccc(=O)c(O)c2C1=O (centres unmarked) [Compound A1, 1-(9a, 10-dihydroindeno[1,2-a]inden-4b(9H)-yl)-5-hydroxy-3-methyl-2,3-dihydro-1H-pyrido[2,1-f][1,2,4]triazine-4,6-dione]	< 125	
CC1N(C)C(=O)c2c(O)c(=O)ccn2N1C12c3ccccc3CC1Cc1c(F)cccc12 (centres unmarked) [Compound A60]	< 125	
CC(CCN1CN(C23c4ccccc4CC2Cc2ccccc23)n2ccc(=O)c(O)c2C1=O)c1ccccc1 (centres unmarked) [Compound A33]		375 to 500
CN1CN(C23c4cccc(F)c4CC2Cc2c(F)cccc23)n2ccc(=O)c(O)c2C1=O (centres unmarked) [Compound A12, 1-(1,8-Difluoro-9a,10-dihydro-9H-indeno[1,2-a]inden-4b-yl)-5-hydroxy-3-methyl-2,3-dihydro-1H-pyrido[2,1-f][1,2,4]triazine-4,6-dione]	< 125	
CCN1CN(C23c4ccccc4CC2(OC)Cc2ccccc23)n2ccc(=O)c(O)c2C1=O (centres unmarked) [Compound A152]	< 125	
CCN1CN(C23c4ccccc4CC2Cc2c3ccc(F)c2C)n2ccc(=O)c(O)c2C1=O (centres unmarked) [Compound A77]	< 125	
CN1CN(C23c4ccccc4CC2Cc2c3ccc(F)c2Cl)n2ccc(=O)c(O)c2C1=O (centres unmarked) [Compound A90]		125 to 250
O=C1c2c(O)c(=O)ccn2N(C23c4ccccc4CC2Cc2c(Cl)cccc23)CN1CCF (centres unmarked) [Compound A111]	125 to 250	
O=C1c2c(O)c(=O)ccn2N(C23c4ccccc4CC2Cc2c3ccc(F)c2F)CN1Cc1cccc(F)c1 (centres unmarked) [Compound A26, 1-(1,2-difluoro-9a,10-dihydroindeno[1,2-a]inden-4b(9H)-yl)-3-(3-fluorobenzyl)-5-hydroxy-2,3-dihydro-1H-pyrido[2,1-f][1,2,4]triazine-4,6-dione]	375 to 500	
CN1CN(C23c4ccccc4CC2Cc2c3ccc(Cl)c2F)n2ccc(=O)c(O)c2C1=O (centres unmarked) [Compound A160]	< 125	
COCCN1C(=O)c2c(O)c(=O)ccn2N(C23c4ccccc4CC2Cc2c(F)cccc23)C1C (centres unmarked) [Compound A124]	375 to 500	
